A short description of data set [1]: first experiment: in vitro digestion and dialysis of soymilk with ascorbic acid or calcium ascorbate, releasable iron. Type of data set: in vitro ADME. The source says: For improving that, a first experiment in the present invention is done, that is, to respectively add the ascorbic acid and the calcium ascorbate into the soymilk and determine the concentration of the releasable iron thereof. Please refer to following Table (1), which is a statistical table of the releasable iron concentration in the soymilk.

Data set [2] is described as follows: sixth experiment: releasable iron in soymilk with 30 ppm ferrous gluconate and sodium isoascorbate additive. Type of data set: in vitro ADME. As to conditions: soymilk with 30 ppm ferrous gluconate. The source says: However, everyone knows that vitamin C includes a stereoisomer called isoascorbic acid, and the physical and chemical properties of the isoascorbic acid are similar to the vitamin C.

Data set [3] in a line: fifth experiment: releasable iron in soymilk with 30 ppm ferrous gluconate and VC, NaVC, KVC or CaVC additive. Type of data set: in vitro ADME. As to conditions: for average iron release rate / average relative release rate: soymilk with 30 ppm ferrous gluconate.
From the text: (§1) In which, “in vitro digestion and dialysis” is used in the experiments for determining the releasable iron in human body after the foods are digested.
Data set [4] is described as follows: second experiment: releasable iron in soymilk with iron salts added by concentration gradients.
From the text: as §1
Setting [5] is: sodium isoascorbate 28.6 mg/100 mL.
[6] abbreviates: sodium isoascorbate 57.1 mg/100 mL.
The mark [7] stands for this setting: sodium isoascorbate 85.7 mg/100 mL.
Where [8] appears, read: sodium isoascorbate 114.3 mg/100 mL.
[9] abbreviates: sodium isoascorbate 142.9 mg/100 mL.
Setting [10] is: sodium isoascorbate 171.4 mg/100 mL.
[11] abbreviates: sodium isoascorbate 200.0 mg/100 mL.
The mark [12] stands for this setting: sodium isoascorbate 228.6 mg/100 mL.
The mark [13] stands for this setting: sodium isoascorbate 257.1 mg/100 mL.
[14] abbreviates: sodium isoascorbate 285.7 mg/100 mL.
Setting [15] is: sodium isoascorbate 314.3 mg/100 mL.
Where [16] appears, read: sodium isoascorbate 342.9 mg/100 mL.
The mark [17] stands for this setting: sodium isoascorbate 371.4 mg/100 mL.
Where [18] appears, read: sodium isoascorbate 400.0 mg/100 mL.
The mark [19] stands for this setting: sodium isoascorbate 428.6 mg/100 mL.
The mark [20] stands for this setting: sodium isoascorbate 457.1 mg/100 mL.
Setting [21] is: sodium isoascorbate 485.7 mg/100 mL.
The mark [22] stands for this setting: sodium isoascorbate 514.3 mg/100 mL.
[23] abbreviates: sodium isoascorbate 542.9 mg/100 mL.
The mark [24] stands for this setting: sodium isoascorbate 571.4 mg/100 mL.
Setting [25] is: soymilk, equivalent additive dosage 175 mg/100 mL.
[26] abbreviates: average additive dosage of ascorbic acid ions 25 ppm.
The mark [27] stands for this setting: average additive dosage of ascorbic acid ions 50 ppm.
Where [28] appears, read: average additive dosage of ascorbic acid ions 75 ppm.
Setting [29] is: average additive dosage of ascorbic acid ions 100 ppm.
The mark [30] stands for this setting: average additive dosage of ascorbic acid ions 125 ppm.
[31] abbreviates: average additive dosage of ascorbic acid ions 150 ppm.
The mark [32] stands for this setting: average additive dosage of ascorbic acid ions 175 ppm.
[33] abbreviates: average additive dosage of ascorbic acid ions 200 ppm.
Where [34] appears, read: average additive dosage of ascorbic acid ions 225 ppm.
[35] abbreviates: average additive dosage of ascorbic acid ions 250 ppm.
[36] abbreviates: average additive dosage of ascorbic acid ions 275 ppm.
[37] abbreviates: average additive dosage of ascorbic acid ions 300 ppm.
The mark [38] stands for this setting: average additive dosage of ascorbic acid ions 325 ppm.
Setting [39] is: average additive dosage of ascorbic acid ions 350 ppm.
The mark [40] stands for this setting: average additive dosage of ascorbic acid ions 375 ppm.
The mark [41] stands for this setting: average additive dosage of ascorbic acid ions 400 ppm.
Where [42] appears, read: average additive dosage of ascorbic acid ions 425 ppm.
The mark [43] stands for this setting: average additive dosage of ascorbic acid ions 450 ppm.
[44] abbreviates: average additive dosage of ascorbic acid ions 475 ppm.
The mark [45] stands for this setting: average additive dosage of ascorbic acid ions 500 ppm.
The mark [46] stands for this setting: soymilk with 30 ppm iron as ferrous gluconate.

With `O=C1O[C@H]([C@@H](O)CO)C(O)=C1O` [VC, ascorbic acid], in data set [1] (75 mg/100 mL), the iron release rate is 51.75%, the “relative release rate” value turned out to be 102.7% and the releasable iron is 2.07 ppm. Further, in data set [1] (175 mg/100 mL), the iron release rate is reported as 78.75%, the “relative release rate” value is reported as 156.28% and the releasable iron was determined as 3.15 ppm.

With `O=C1O[C@H]([C@H](O)CO)C([O-])=C1O.[Na+]` [sodium isoascorbate], the iron release rate came to 23.37% in data set [2] (setting [5]); 28.20% in data set [2] (setting [6]); 33.67% in data set [2] (setting [7]); 34.23% in data set [2] (setting [8]); 36.17% in data set [2] (setting [9]); 38.73% in data set [2] (setting [10]). Besides, the iron release rate in data set [2] (setting [11]) is 41.53%; in data set [2] (setting [12]) it was 41.90%; in data set [2] (setting [13]), 43.20%; in data set [2] (setting [14]) it was 45.80%; in data set [2] (setting [15]), 46.30%; in data set [2] (setting [16]) it was 47.77%. For the same compound, the iron release rate in data set [2] (setting [17]) was 48.60%; in data set [2] (setting [18]), 48.73%; in data set [2] (setting [19]) it was 49.30%; in data set [2] (setting [20]), 49.23%; in data set [2] (setting [21]) it was 49.60%; in data set [2] (setting [22]) it was 49.90%. Also, the iron release rate in data set [2] (setting [23]) turned out to be 50.90%; in data set [2] (setting [24]), 50.37%. For the same compound, the relative release rate stood at 46.37% in data set [2] (setting [5]); 55.96% in data set [2] (setting [6]); 66.81% in data set [2] (setting [7]); 67.94% in data set [2] (setting [8]); 71.77% in data set [2] (setting [9]); 76.87% in data set [2] (setting [10]). In addition, the relative release rate was 82.42% in data set [2] (setting [11]); 83.15% in data set [2] (setting [12]); 85.73% in data set [2] (setting [13]); 90.89% in data set [2] (setting [14]); 91.88% in data set [2] (setting [15]); 94.79% in data set [2] (setting [16]). Besides, the relative release rate in data set [2] (setting [17]) amounted to 96.45%; in data set [2] (setting [18]), 96.71%; in data set [2] (setting [19]), 97.84%; in data set [2] (setting [20]), 97.70%; in data set [2] (setting [21]), 98.43%; in data set [2] (setting [22]), 99.03%. The values for the relative release rate in data set [2] (setting [23]) and in data set [2] (setting [24]) were 101.01% and 99.95%, respectively. The releasable iron concentration in data set [2] (setting [5]) stood at 7.01 ppm; in data set [2] (setting [6]), 8.46 ppm; in data set [2] (setting [7]), 10.10 ppm; in data set [2] (setting [8]), 10.27 ppm; in data set [2] (setting [9]), 10.85 ppm; in data set [2] (setting [10]) it was 11.62 ppm. Besides, the releasable iron concentration worked out at 12.46 ppm in data set [2] (setting [11]); 12.57 ppm in data set [2] (setting [12]); 12.96 ppm in data set [2] (setting [13]); 13.74 ppm in data set [2] (setting [14]); 13.89 ppm in data set [2] (setting [15]); 14.33 ppm in data set [2] (setting [16]). Moreover, the releasable iron concentration came to 14.58 ppm in data set [2] (setting [17]); 14.62 ppm in data set [2] (setting [18]); 14.79 ppm in data set [2] (setting [19]); 14.77 ppm in data set [2] (setting [20]); 14.88 ppm in data set [2] (setting [21]); 14.97 ppm in data set [2] (setting [22]). For the same compound, the releasable iron concentration stood at 15.27 ppm in data set [2] (setting [23]) and 15.11 ppm in data set [2] (setting [24]).

calcium ascorbate [CaVC]: in data set [1] (setting [25]), the iron release rate amounted to 48.75% and the releasable iron is on record as 1.95 ppm. For the same compound, the “relative release rate” value in data set [1] (soymilk, equivalent additive dosage 175 mg/100 mL, relative to ferrous sulfate aqueous solution) came out at 96.75%.

Regarding `O=C1O[C@H]([C@@H](O)CO)C(O)=C1O` [ascorbic acid ions], the “average iron release rate” value in data set [3] (setting [26]) is 16.90%; in data set [3] (setting [27]), 23.17%; in data set [3] (setting [28]), 27.88%; in data set [3] (setting [29]) it was 32.08%; in data set [3] (setting [30]) it was 33.35%; in data set [3] (setting [31]) it was 34.92%. In addition, the “average iron release rate” value came to 35.85% in data set [3] (setting [32]); 36.86% in data set [3] (setting [33]); 38.23% in data set [3] (setting [34]); 39.40% in data set [3] (setting [35]); 40.57% in data set [3] (setting [36]); 42.29% in data set [3] (setting [37]). The “average iron release rate” value in data set [3] (setting [38]) was determined as 43.63%; in data set [3] (setting [39]), 44.67%; in data set [3] (setting [40]), 45.61%; in data set [3] (setting [41]), 46.28%; in data set [3] (setting [42]) it was 47.22%; in data set [3] (setting [43]), 47.86%. Also, the “average iron release rate” value in data set [3] (setting [44]) amounted to 48.99%; in data set [3] (setting [45]), 50.01%. For the same compound, the “average relative release rate” value in data set [3] (setting [26]) turned out to be 33.55%; in data set [3] (setting [27]), 45.97%; in data set [3] (setting [28]) it was 55.33%; in data set [3] (setting [29]) it was 63.67%; in data set [3] (setting [30]) it was 66.18%; in data set [3] (setting [31]) it was 69.30%. Further, the “average relative release rate” value in data set [3] (setting [32]) worked out at 71.14%; in data set [3] (setting [33]) it was 73.15%; in data set [3] (setting [34]), 75.86%; in data set [3] (setting [35]) it was 78.18%; in data set [3] (setting [36]) it was 80.51%; in data set [3] (setting [37]), 83.93%. Moreover, the “average relative release rate” value in data set [3] (setting [38]) is listed as 86.59%; in data set [3] (setting [39]) it was 88.66%; in data set [3] (setting [40]), 90.52%; in data set [3] (setting [41]), 91.85%; in data set [3] (setting [42]) it was 93.72%; in data set [3] (setting [43]), 94.99%. Also, the “average relative release rate” value in data set [3] (setting [44]) came out at 97.23%; in data set [3] (setting [45]), 99.24%.

For the compound ferrous gluconate, the “concentration of releasable iron” value in data set [4] (additive dosage of iron 10 ppm) came out at 1.61 ppm; in data set [4] (additive dosage of iron 20 ppm), 2.05 ppm; in data set [4] (additive dosage of iron 30 ppm), 2.08 ppm; in data set [4] (additive dosage of iron 40 ppm) it was 2.68 ppm; in data set [4] (additive dosage of iron 50 ppm) it was 3.15 ppm; in data set [4] (additive dosage of iron 60 ppm), 4.06 ppm. Further, the “concentration of releasable iron” value in data set [4] (additive dosage of iron 70 ppm) came to 3.98 ppm; in data set [4] (additive dosage of iron 75 ppm), 3.87 ppm. In data set [4] (point where releasable iron starts to rise with additive dosage), the initially inhibiting concentration amounted to 30 ppm. In data set [3] (setting [46]), the “releasable iron concentration before adding the ascorbic acid iron” value came to 2.08 ppm. The “the most effective additive dosage for ascorbic acid iron” value in data set [3] (setting [46]) was 50 mg/100 ml. Also, the “release promoting rate of iron” value in data set [3] (soymilk with 30 ppm iron as ferrous gluconate, after/before adding the ascorbic acid iron) was 458%. The “releasable iron concentration after adding the ascorbic acid iron” value in data set [3] (soymilk with 30 ppm iron as ferrous gluconate, at the most effective additive dosage 50) came to 9.53 ppm.

Turning to `O=C1O[C@H]([C@H](O)CO)C(O)=C1O` [isoascorbic acid ions], the “release promoting rate for iron compared with ascorbic acid ions” value in data set [2] (sodium isoascorbate additive) is “almost the same”.

(Values after patent US20130089641A1.)
